Data reported in US20200208112A1, “Method of Selecting Genetically Modified Hematopoietic Stem Cells” (priority 2017, published 2020).

Key:
NIH3T3 cells = assay: Puromycin selection and ganciclovir sensitivity of LTGCPU7-transduced NIH3T3 cells; type: cell-based
Method: a. NIH3T3 cells were mock-transduced (NT) or transduced with LTGCPU7, and LTGCPU7-transduced cells were selected with puromycin. Equivalent numbers of mock- and LTGCPU7-transduced/selected cells were treated with GCV at the indicated concentration. Living cells were counted three days later.
(§1) (Beckman Coulter). Where indicated, purification was performed with a Mustang Q anion exchange membrane cartridge (Pall Corporation), as previously described (Kutner et al., Nature protocols, 2009, 4, 495-505) and a 40K ZebaSpin desalting column (ThermoFisher Scientific), according to the manufacturer's instructions, with concentration by ultracentrifugation. Infectious titers were determined by qPCR, as previously described (Payen, E. et al., Methods in enzymology, 2012, 507, 109-124). When indicated, transduced NIH3T3 cells were selected on puromycin and treated with various concentrations of ganciclovir (Cymevan, Roche). Adult and cord blood CD34^+ cells were cultured in SCGM (CellGenix) and X-VIVO 20 (Lonza) medium, respectively, and transduced as previously described (Negre, O. et al., Current gene therapy, 2015, 15, 64-81). Cells were selected 48 hours after transduction, on puromycin hydrochloride (5 μg/mL, Sigma-Aldrich).

CB CD34+ cells = assay: Conditional suicide in vitro: ganciclovir treatment of CB CD34+ cells, erythroid progenitor assay; type: cell-based, human
Method: (§2) a.b.c.d. Human cord blood CD34^+ cells were transduced with LTGCPU7 and treated with puromycin and cyclosporine A for 24 hours. Non-transduced (NT) and LTGCPU7-transduced cells were then treated with ganciclovir (GCV) for three days, counted (a) and plated on semi-solid medium for the evaluation of erythroid progenitor cell eradication (b). Selected cells were also injected into 16 NSG mice, half of which were treated with GCV four weeks later (50 mg/kg, 6 days per week, for 2 weeks). Human chimerism (c) and VCN in human CD45^+ cells (d) were determined 2 months later.
(§3) CB CD34+ cells were transduced with LTGCPU7, they were treated with ganciclovir for 72 hours, and plated on methylcellulose. The toxicity of ganciclovir was limited in non-transduced cells (FIG. 8a and FIG. 8b) and the number of transduced erythroid progenitors decreased by a factor of 200 and 1000 in the presence of 1 μM and 5 μM ganciclovir respectively (FIG. 8b). The transduced cells were injected into 16 NSG mice. Four weeks later, eight of the mice received ganciclovir. […] The absence of hCD45+ cells in mice with levels below the limit of sensitivity (<0.01%) was confirmed by the lack of enrichment observed on hCD45 cell sorting.

[1] = test system: transduced human hCD45+ cells; assay: Conditional suicide in vivo: ganciclovir treatment of NSG mice carrying transduced human cells; conditions: treated group, 50 mg/kg 6 days per week for 2 weeks, two months later
Method: as §2, §3

[2] = test system: mobilized peripheral blood (mPB) CD34+ cells; assay: Puromycin selection of transduced mobilized peripheral blood CD34+ cells (mean VCN, progenitor assay); type: cell-based, human
Method: as §1
(§4) Vector copy numbers were determined by the comparative Ct method and set at integer values. Colony-forming cells with VCN values between 0.5 and 1.5 were considered to have a VCN of 1; those with VCN values between 1.5 and 2.5 were considered to have a VCN of 2, and so on. LTC-IC cells were analyzed as previously described (Payen, E. et al., Methods in enzymology, 2012, 507, 109-124). The percentage of vector-modified LTC-IC during the readout phase of the assay was determined, by subjecting no more than one clonogenic myeloid colony per well to qPCR-based scoring to ensure that only independent LTC-ICs were analyzed.
The LTGCPU1 vector expressing the puromycin N-acetyl-transferase (PAC) gene under the human PGK promoter is derived from a β-globin LV that has been tested in an approved human trial for the gene therapy of the beta-hemoglobinopathies (Cavazzana Calvo et al., Nature, 2010; 467, 318-322; FIG. 1). LTGCPU1 transduced bone marrow (BM) CD34^+ cells were transferred onto selective medium containing 10 μg/mL puromycin at 24 or 48 hours after transduction. They were incubated for 24 hours, and the frequency of functional hematopoietic progenitor cell subsets was evaluated. The absolute numbers of vector-bearing erythroid progenitors (BFU-Es) were similar in the presence and absence of treatment, regardless of the time allowed for PAC gene expression. However, incubation for two days was required for the myeloid (CFU-GMs) and long-term progenitor cells (LTC-ICs) to acquire full resistance to the antibiotic (FIG. 2a). Mobilized peripheral blood (mPB) CD34^+ cells were also transduced with LTGCPU1 and treated with puromycin. The mean vector copy number (VCN) per cell was determined for pooled cells and compared with the theoretical VCN obtained in optimal conditions (eradication of all non-transduced cells and survival of all vector-bearing cells). In non-selective conditions, the mean VCN was 0.17. Based on the assumption that vector integration obeys Poisson statistics (see below), optimal selection should give rise to 1.08 copies of the vector per cell. Mean VCN was 1.6 when cells were selected 24 hours after transduction, and close to the expected value (1.08) if puromycin treatment began two or three days after transduction (FIG. 2b). […] With this optimized protocol, the proportion of vector-bearing progenitors (myeloid and erythroid) increased from 10-20% to more than 90% following treatment with 5 μg/mL puromycin (FIG. 2c).

[3] = test system: bone marrow (BM) CD34+ cells; assay: Puromycin selection of LTGCPU1-transduced bone marrow CD34+ cells (progenitor and LTC-IC assays); type: cell-based, human; conditions: 10 μg/mL puromycin for 24 hours, 24 or 48 hours after transduction
Method: as §1
as §4, with “Colony-forming cells with VCN values between 0.5 and 1.5 were considered to have a VCN of 1; those with VCN values between 1.5 and 2.5 were considered to have a VCN of 2, and so on.” left out, “analyzed. […]” for “analyzed.”

cord blood CD34+ cells = assay: Selection of LTGCPU7-transduced cord blood CD34+ cells, progenitor assay on methylcellulose; type: cell-based, human
Method: as §1, §4

[4] = test system: SCID-repopulating cells (SRC); assay: Transplantation of transduced and selected cord blood CD34+ cells into NSG mice (SRC selection); conditions: puromycin alone, three months after transplantation
Source text: NOD.Cg-Prkdc^scid Il2rg^tmlWjl/SzJ (NOD-scid IL2rgamma^null abbreviated to NSG) mice were obtained from Charles River Laboratories (Saint Germain sur l'Arbresle, France) and kept in individually ventilated cages supplied with sterile food and autoclaved water. […] Experimental protocols were approved by the ethics committee for animal experimentation of the CEA, under notification number 12-033. Three- to four-month-old female recipients (at least 6 mice per group) were sublethally irradiated with a dose of 2.8 Gy (1 Gy/min) to the whole body (TBI). Then, 10^4 to 10^5 transduced and selected human cells were injected intravenously into the mice on the day after irradiation. […]
For progenitor assays performed immediately after in vitro transduction and selection, 500 to 1000 cells were plated in methylcellulose based-medium already supplemented with human cytokines (H4434, Stemcell Technologies). […] The colonies were counted and collected after incubation for 11-14 days, washed with PBS and stored. […]
Non-viable cells were excluded by Sytox Blue nucleic acid staining (ThermoFisher Scientific) or with 7AAD (eBioscience). Data were acquired with MACSQUANT instrument (Miltenyi) and analyzed with FlowJo software (Tree Star, Inc). […]

| SMILES | sensitivity of LTGCPU7-transduced, puromycin-selected cells to ganciclovir (NIH3T3 cells) | toxicity in non-transduced cells (CB CD34+ cells) | factor of decrease of the number of transduced erythroid progenitors (CB CD34+ cells; 5 μM ganciclovir, 72 hours) | mice in which hCD45+ cells were detected [1] | absolute numbers of transduced progenitors, presence versus absence of puromycin ([2]; LTGCPU1-transduced, optimized protocol) | proportion of vector-bearing progenitors (myeloid and erythroid) ([2]; LTGCPU1-transduced, 5 μg/mL puromycin for 24 hours, 48 hours after transduction) | mean VCN per cell, pooled cells ([2]; LTGCPU1-transduced, puromycin 10 μg/mL, selected 24 hours after transduction) | mean VCN per cell, pooled cells ([2]; LTGCPU1-transduced, puromycin treatment began two or three days after transduction) | percentage of transduced progenitor cells in vitro ([2]; mPB cells, after selection with puromycin (data not shown)) | mean VCN in puromycin-treated cells ([2]; mPB cells, in vitro) | absolute numbers of vector-bearing erythroid progenitors (BFU-Es), presence versus absence of treatment [3] | selection of LTGCPU7-transduced cord blood progenitors (cord blood CD34+ cells; 5 μg/mL puromycin for 24 hours) | mean VCN in erythroid progenitors, pooled cells from methylcellulose (cord blood CD34+ cells; 5 μg/mL puromycin, absence of MDR1 inhibitors) | mean VCN and percentage of vector-bearing cells in erythroid progenitors versus untreated (cord blood CD34+ cells; puromycin alone) | mean VCN in hCD45+ cells isolated from mice versus absence of treatment [4] |
| --- | --- | --- | --- | --- | --- | --- | --- | --- | --- | --- | --- | --- | --- | --- | --- |
| Nc1nc(O)c2ncn(COC(CO)CO)c2n1 [ganciclovir] | sensitive | limited | 1000 | one of the eight mice |  |  |  |  |  |  |  |  |  |  |  |
| COc1ccc(C[C@H](N)C(=O)N[C@H]2[C@@H](O)[C@H](n3cnc4c(N(C)C)ncnc43)O[C@@H]2CO)cc1 [puromycin] |  |  |  |  | similar | more than 90% | 1.6 | ~1.08 | 100% | greater than 1 | similar | efficiently selected | ≈ 0.5 | higher | similar |
